According to paper PMC8480901 (PLoS ONE, 2021):
Where “and” joins values, the source holds several entries; their conditions need not be identical. Equal entries are not always repeated.

Legend:
J774.2 mouse macrophages = experiment: Cytotoxicity in J774.2 mouse macrophages (adenylate kinase release, ToxiLight); assay type: cell-based; settings: J774.2 cells; 100 μM
Method: The effect of t est compounds on cell viabilit y of J 774.2 macrophages and human PBMCs […]
was determined b y comp aring th e aden yl ate kinas e signal obtain ed in the p resence of diff er ent concentrations of compounds with those obtained in DMSO (vehicle) control. Signals were […]
divided,and the results were ex pressed as fold-change versus v ehicle con trol .

[1] = cited from earlier work
[2] = system: TNF-α, IL-6, IL-1β, GM-CSF, CXCL-1, CXCL-2, CCL-2 and MMP-9 in lung tissue; experiment: LPS-induced cytokines, chemokines and MMP-9 in mouse lung homogenates (Luminex, ELISA); settings: for CCL2 % reduction / CXCL1 % reduction / CXCL2 % reduction / GM-CSF % reduction / IL-1β % reduction / IL-6 % reduction / MMP9 % reduction / TNFα % reduction / CCL2 / CXCL1 / CXCL2 / GM-CSF / IL-1β / IL-6 / MMP9 / TNFα / CCL2 Mean / CXCL1, Mean / CXCL2, Mean / GM-CSF Mean / IL-1β Mean / IL-6 Mean / MMP9, Mean / TNFα Mean: lung homogenate, LPS; for CCL2 / CXCL1 / CXCL2 / GM-CSF / IL-1β / IL-6 / MMP9 / TNFα: individual animal, listed as Azi; for CCL2 Mean / CXCL1, Mean / CXCL2, Mean / GM-CSF Mean / IL-1β Mean / IL-6 Mean / MMP9, Mean / TNFα Mean: mean of 8
Method: To induce pulmonary neutrophilia, mice in the control group received intranasal (IN) 50 μL saline, and all other animals received 5 μg LPS/50 μL saline IN per mouse.
After bronchoalveolar lavage, lungs were removed, weighed, snap frozen, and stored at −80°C until analysis. To homogenize the tissue, the frozen lungs were thawed and placed in Precellys CK28 Hard Tissue tubes (BERTIN Instruments, Montigny-le-Bretonneux, France) in 1 mL PBS (Gibco, Life Technologies, Paisley, UK) supplemented with protease inhibitors (Halt™ Protease Inhibitor Cocktail [100×]; Thermo Fisher Scientific, Rockford, IL, USA). A Precellys homogenizer (BERTIN Instruments) was used, shaking at 6800 rpm for three 30-second pulses separated by 15-second pauses. After homogenization, samples were centrifuged at 18,000×g for 10 minutes at 4°C, and the supernatants were collected for analysis.
Concentrations of tumor necrosis factor (TNF)-α, IL-6, granulocyte-macrophage colony-stimulating factor (GM-CSF), chemokine (C-X-C motif) ligand (CXCL)-1, CXCL-2, and chemokine (C-C motif) ligand (CCL)-2 in mouse lung homogenates were analyzed with the Mouse Premixed Multi-Analyte Kit (R&D Systems, Minneapolis, MN, USA) per the manufacturer’s protocol and using a Luminex 200 System (Luminex Corporation, Austin, TX, USA). Cytokine and chemokine concentrations were determined from blank-corrected median fluorescence intensity of each sample via xPONENT® software (Luminex Corporation), interpolating from standard curves generated with a 5-parameter logistic curve-fit.
Mouse Total MMP (matrix metalloprotease)-9 and IL-1β/IL-1F2 DuoSet ELISA (enzyme-linked immunosorbent assay) kits (R&D Systems) were used to measure concentrations of MMP-9 and IL-1β, respectively, in lung homogenates per the manufacturer’s protocols. Absorbance at 450 nm was measured using the SpectraMax i3 (Molecular Devices, San Jose, CA, USA). Concentrations of MMP-9 and IL-1β in samples were determined by interpolation from standard curves.
Differences between treated versus vehicle groups were determined using the Mann-Whitney test and were considered statistically significant when P<0.05. Outliers in the analysis of cytokine and chemokine concentrations were identified using the Grubbs test. No criteria were set for inclusion/exclusion of animals during the experiment or data points during the analysis.

[3] = all doses (10, 30, 100 mg/kg SC)

CC[C@H]1OC(=O)[C@H](C)[C@@H](O[C@H]2C[C@@](C)(OC)[C@@H](O)[C@H](C)O2)[C@H](C)[C@@H](O[C@@H]2O[C@H](C)C[C@H](N(C)C)[C@H]2O)[C@](C)(O)C[C@@H](C)CN(C)[C@H](C)[C@@H](O)[C@]1(C)O [Azithromycin]
cell viability (J774.2 mouse macrophages): reduced
increase in AUC, first to fifth daily dose ([1]; 500 mg IV daily): 61%
increase in maximum observed plasma concentration, first to fifth daily dose ([1]; 500 mg IV daily): 8%
plasma exposure (AUC) ([1]; 500-mg IV 3-hour infusion, healthy volunteers): 5000 ng·h/mL
TNF-α concentrations in lung homogenate ([2]; 100 mg/kg SC): no significant effect
TNF-α concentrations in lung homogenate ([2]; 10 and 30 mg/kg SC): significant reductions
IL-1β concentrations in lung homogenate [2, 3]: reduced
MMP-9 levels in lung homogenate [2, 3]: not as pronounced as with lefamulin
chemokines and GM-CSF in lung homogenate [2, 3]: significant but not as pronounced
IL-6 concentrations in lung homogenate ([2]; all doses tested (10, 30, 100 mg/kg SC), vs vehicle control): reduced to a lesser extent
IL-1β concentrations in lung homogenate ([2]; lowest dose (10 mg/kg SC)): significant reduction
CCL2 % reduction ([2]; 10 mg/kg): 36%
CXCL1 % reduction ([2]; 10 mg/kg): 44%
CXCL2 % reduction ([2]; 10 mg/kg): 41%
GM-CSF % reduction ([2]; 10 mg/kg): 44%
IL-1β % reduction ([2]; 10 mg/kg): 13%
IL-6 % reduction ([2]; 10 mg/kg): 51%
MMP9 % reduction ([2]; 10 mg/kg): 16%
TNFα % reduction ([2]; 10 mg/kg): 61%
CCL2 ([2]; 10 mg/kg): 4556.27 pg/mL and 3263.22 pg/mL and 1456.64 pg/mL and 3309.90 pg/mL and 1430.47 pg/mL and 5875.00 pg/mL and 1417.32 pg/mL and 3315.08 pg/mL
CXCL1 ([2]; 10 mg/kg): 8286.02 pg/mL and 7278.90 pg/mL and 5769.98 pg/mL and 6100.99 pg/mL and 6284.84 pg/mL and 12400.64 pg/mL and 5305.93 pg/mL and 5666.95 pg/mL
CXCL2 ([2]; 10 mg/kg): 7643.01 pg/mL and 7085.07 pg/mL and 4631.04 pg/mL and 5712.04 pg/mL and 6677.58 pg/mL and 11079.57 pg/mL and 4412.48 pg/mL and 8631.64 pg/mL
GM-CSF ([2]; 10 mg/kg): 139.66 pg/mL and 134.35 pg/mL and 75.54 pg/mL and 114.95 pg/mL and 86.88 pg/mL and 293.40 pg/mL and 92.13 pg/mL and 119.35 pg/mL
IL-1β ([2]; 10 mg/kg): 8824 pg/mL and 7408 pg/mL and 8108 pg/mL and 9841 pg/mL and 7312 pg/mL and 9969 pg/mL and 10254 pg/mL and 14453 pg/mL
IL-6 ([2]; 10 mg/kg): 703.95 pg/mL and 429.86 pg/mL and 475.85 pg/mL and 521.70 pg/mL and 613.04 pg/mL and 952.23 pg/mL and 337.40 pg/mL and 749.27 pg/mL
MMP9 ([2]; 10 mg/kg): 2413 pg/mL and 1880 pg/mL and 2467 pg/mL and 2045 pg/mL and 2015 pg/mL and 1705 pg/mL and 1966 pg/mL
TNFα ([2]; 10 mg/kg): 468.82 pg/mL and 365.25 pg/mL and 396.22 pg/mL and 281.21 pg/mL and 385.93 pg/mL and 406.49 pg/mL and 646.25 pg/mL and 400.08 pg/mL
CCL2 Mean ([2]; 10 mg/kg): 3078 pg/mL
CXCL1, Mean ([2]; 10 mg/kg): 7137 pg/mL
CXCL2, Mean ([2]; 10 mg/kg): 6984 pg/mL
GM-CSF Mean ([2]; 10 mg/kg): 132 pg/mL
IL-1β Mean ([2]; 10 mg/kg): 9521 pg/mL
IL-6 Mean ([2]; 10 mg/kg): 598 pg/mL
MMP9, Mean ([2]; 10 mg/kg): 2113 pg/mL
TNFα Mean ([2]; 10 mg/kg): 419 pg/mL
CCL2 % reduction ([2]; 30 mg/kg): 89%
CXCL1 % reduction ([2]; 30 mg/kg): 62%
CXCL2 % reduction ([2]; 30 mg/kg): 66%
GM-CSF % reduction ([2]; 30 mg/kg): 77%
IL-1β % reduction ([2]; 30 mg/kg): 12%
IL-6 % reduction ([2]; 30 mg/kg): 89%
MMP9 % reduction ([2]; 30 mg/kg): 27%
TNFα % reduction ([2]; 30 mg/kg): 77%
CCL2 ([2]; 30 mg/kg): 1476.16 pg/mL and 999.58 pg/mL and 556.20 pg/mL and 527.89 pg/mL and 1875.36 pg/mL and 690.08 pg/mL and 698.62 pg/mL and 781.98 pg/mL
CXCL1 ([2]; 30 mg/kg): 6439.29 pg/mL and 6623.20 pg/mL and 4431.51 pg/mL and 4192.30 pg/mL and 6910.31 pg/mL and 3755.15 pg/mL and 2835.10 pg/mL and 5401.78 pg/mL
CXCL2 ([2]; 30 mg/kg): 7207.48 pg/mL and 4769.86 pg/mL and 3209.88 pg/mL and 2485.22 pg/mL and 5075.82 pg/mL and 2214.38 pg/mL and 1941.44 pg/mL and 6143.97 pg/mL
GM-CSF ([2]; 30 mg/kg): 74.67 pg/mL and 53.86 pg/mL and 46.96 pg/mL and 43.52 pg/mL and 113.19 pg/mL and 45.24 pg/mL and 48.68 pg/mL and 57.31 pg/mL
IL-1β ([2]; 30 mg/kg): 7544 pg/mL and 10213 pg/mL and 8353 pg/mL and 7459 pg/mL and 10985 pg/mL and 8847 pg/mL and 13576 pg/mL and 10376 pg/mL
IL-6 ([2]; 30 mg/kg): 510.25 pg/mL and 452.87 pg/mL and 220.67 pg/mL and 149.74 pg/mL and 314.17 pg/mL and 173.48 pg/mL and 475.85 pg/mL
MMP9 ([2]; 30 mg/kg): 1204 pg/mL and 2421 pg/mL and 1943 pg/mL and 1913 pg/mL and 2288 pg/mL and 1939 pg/mL and 1874 pg/mL and 1816 pg/mL
TNFα ([2]; 30 mg/kg): 463.76 pg/mL and 597.19 pg/mL and 177.73 pg/mL and 146.70 pg/mL and 109.09 pg/mL and 202.71 pg/mL and 129.48 pg/mL
CCL2 Mean ([2]; 30 mg/kg): 951 pg/mL
CXCL1, Mean ([2]; 30 mg/kg): 5074 pg/mL
CXCL2, Mean ([2]; 30 mg/kg): 4131 pg/mL
GM-CSF Mean ([2]; 30 mg/kg): 60 pg/mL
IL-1β Mean ([2]; 30 mg/kg): 9669 pg/mL
IL-6 Mean ([2]; 30 mg/kg): 306 pg/mL
MMP9, Mean ([2]; 30 mg/kg): 1925 pg/mL
TNFα Mean ([2]; 30 mg/kg): 245 pg/mL
CCL2 % reduction ([2]; 100 mg/kg): 80%
CXCL1 % reduction ([2]; 100 mg/kg): 24%
CXCL2 % reduction ([2]; 100 mg/kg): 11%
GM-CSF % reduction ([2]; 100 mg/kg): 67%
IL-1β % reduction ([2]; 100 mg/kg): 12%
IL-6 % reduction ([2]; 100 mg/kg): 8%
MMP9 % reduction ([2]; 100 mg/kg): 24%
TNFα % reduction ([2]; 100 mg/kg): 36%
CCL2 ([2]; 100 mg/kg): 3799.67 pg/mL and 664.18 pg/mL and 1172.90 pg/mL and 962.12 pg/mL and 765.59 pg/mL and 1437.03 pg/mL and 877.71 pg/mL and 698.62 pg/mL
CXCL1 ([2]; 100 mg/kg): 20237.00 pg/mL and 6969.24 pg/mL and 8733.13 pg/mL and 8755.54 pg/mL and 6380.45 pg/mL and 8935.00 pg/mL and 8591.33 pg/mL and 8085.43 pg/mL
CXCL2 ([2]; 100 mg/kg): 18077.64 pg/mL and 6817.72 pg/mL and 11394.66 pg/mL and 9108.54 pg/mL and 6682.24 pg/mL and 11221.65 pg/mL and 9678.57 pg/mL and 10364.59 pg/mL
GM-CSF ([2]; 100 mg/kg): 162.70 pg/mL and 67.71 pg/mL and 85.13 pg/mL and 72.93 pg/mL and 64.24 pg/mL and 90.38 pg/mL and 45.24 pg/mL
IL-1β ([2]; 100 mg/kg): 6686 pg/mL and 8985 pg/mL and 9690 pg/mL and 9020 pg/mL and 8022 pg/mL and 10797 pg/mL and 10826 pg/mL and 12960 pg/mL
IL-6 ([2]; 100 mg/kg): 2378.14 pg/mL and 464.36 pg/mL and 635.80 pg/mL and 669.91 pg/mL and 567.42 pg/mL and 703.95 pg/mL and 884.75 pg/mL and 1176.18 pg/mL
MMP9 ([2]; 100 mg/kg): 1836 pg/mL and 1554 pg/mL and 2200 pg/mL and 2220 pg/mL and 2073 pg/mL and 2366 pg/mL and 1528 pg/mL and 2063 pg/mL
TNFα ([2]; 100 mg/kg): 660.88 pg/mL and 1126.83 pg/mL and 249.05 pg/mL and 935.87 pg/mL and 855.56 pg/mL and 270.54 pg/mL and 656.01 pg/mL and 675.49 pg/mL
CCL2 Mean ([2]; 100 mg/kg): 1297 pg/mL
CXCL1, Mean ([2]; 100 mg/kg): 9586 pg/mL
CXCL2, Mean ([2]; 100 mg/kg): 10418 pg/mL
GM-CSF Mean ([2]; 100 mg/kg): 83 pg/mL
IL-1β Mean ([2]; 100 mg/kg): 9623 pg/mL
IL-6 Mean ([2]; 100 mg/kg): 935 pg/mL
MMP9, Mean ([2]; 100 mg/kg): 1980 pg/mL
TNFα Mean ([2]; 100 mg/kg): 679 pg/mL
